Test results published in ChEMBL document CHEMBL5137024, “Discovery of novel coumarin-indole derivatives as tubulin polymerization inhibitors with potent anti-gastric cancer activities” (Eur J Med Chem, 2022).
The source made the active and inactive calls. The rule behind the calls is not given here.

Tests used:
MGC-803 [1] = experiment: Induction of apoptosis in human MGC-803 cells assessed as decrease in XIAP level; assay type: functional, cell-based; settings: dose 5-15 nM, DDE = dose-dependent effect
MGC-803 [2] = experiment: Downregulation of c-Myc expression in human MGC-803 cells incubated for 48 hrs; assay type: functional, cell-based; settings: dose 5-15 nM, DDE = dose-dependent effect
MGC-803 [3] = experiment: Induction of apoptosis in human MGC-803 cells assessed as increase in cleavage substrate PARP level; assay type: functional, cell-based; settings: dose 5-15 nM, DDE = dose-dependent effect
MGC-803 [4] = experiment: Induction of apoptosis in human MGC-803 cells assessed as upregulation of DR5 level; assay type: functional, cell-based; settings: dose 5-15 nM, DDE = dose-dependent effect
MGC-803 [5] = experiment: Induction of apoptosis in human MGC-803 cells assessed as cell rounding at 5 to 15 nM incubated for 48 hrs by bright field imaging analysis; assay type: functional, cell-based; settings: dose 5-15 nM
MGC-803 [6] = experiment: Downregulation of MMP-9 expression in human MGC-803 cells incubated for 48 hrs; assay type: functional, cell-based; settings: dose 5-15 nM, DDE = dose-dependent effect
Mus musculus [7] = experiment: Upregulation of cleaved caspase -3 expression in tumor tissue of BALB/c nude mouse xenografted with human MGC-803 cells at 15 to 30 mg/kg, ip administered once daily for 21 days by Western blotting analysis; assay type: functional, organism-based; settings: dose 15-30 mg/kg, time 21.0 day
HGC-27 [8] = experiment: Antiproliferative activity against human HGC-27 cells assessed as reduction in cell viability incubated for 48 hrs by MTT assay; assay type: functional, cell-based; settings: HGC-27, 48 h
SGC-7901 = experiment: Antiproliferative activity against human SGC-7901 cells assessed as reduction in cell viability incubated for 48 hrs by MTT assay; assay type: functional, cell-based; settings: SGC-7901, 48 h
HGC-27 [9] = experiment: Induction of apoptosis in human HGC-27 cells assessed as cell rounding at 10 to 30 nM incubated for 48 hrs by bright field imaging analysis; assay type: functional, cell-based; settings: dose 10-30 nM
MGC-803 [10] = experiment: Inhibition of p38 signalling pathway in human MGC-803 cells assessed as reduction in downstream substrate HSP-27 phosphorylation at 5 to 15 nM incubated for 48 hrs; assay type: cell-based; settings: dose 5-15 nM
HGC-27 [11] = experiment: Inhibition of p38 signalling pathway in human HGC-27 cells assessed as reduction in p38 phosphorylation at 10 to 30 nM incubated for 48 hrs; assay type: cell-based; settings: dose 10-30 nM
HGC-27 [12] = experiment: Induction of apoptosis in human HGC-27 cells assessed as decrease in cIAP-1 level; assay type: functional, cell-based; settings: dose 10-30 nM, DDE = dose-dependent effect
HGC-27 [13] = experiment: Downregulation of cdc2 phosphorylation at Thr14 residue in human HGC-27 cells at 10 to 30 nM incubated for 48 hrs; assay type: functional, cell-based; settings: dose 10-30 nM
HGC-27 [14] = experiment: Inhibition of p38 signalling pathway in human HGC-27 cells assessed as reduction in downstream substrate HSP-27 phosphorylation at 10 to 30 nM incubated for 48 hrs; assay type: cell-based; settings: dose 10-30 nM
SK-N-SH = experiment: Antiproliferative activity against human SK-N-SH cells assessed as reduction in cell viability incubated for 48 hrs by MTT assay; assay type: functional, cell-based
HGC-27 [15] = experiment: Induction of apoptosis in human HGC-27 cells assessed as nuclear concentration at 10 to 30 nM incubated for 48 hrs by DAPI staining based analysis; assay type: functional, cell-based; settings: dose 10-30 nM
MGC-803 [16] = experiment: Upregulation of phosphorylated Histone H3 expression in human MGC-803 cells at 5 to 15 nM incubated for 48 hrs; assay type: functional, cell-based; settings: dose 5-15 nM
HGC-27 [17] = experiment: Induction of apoptosis in human HGC-27 cells assessed as decrease in XIAP level; assay type: functional, cell-based; settings: dose 10-30 nM, DDE = dose-dependent effect
HGC-27 [18] = experiment: Inhibition of p38 signalling pathway in human HGC-27 cells assessed as reduction in downstream substrate MAPKAPK2 phosphorylation at 10 to 30 nM incubated for 48 hrs; assay type: cell-based; settings: dose 10-30 nM
MGC-803 [19] = experiment: Induction of DNA damage in human MGC-803 cells by comet assay; assay type: functional, cell-based; settings: dose 5-15 nM, DDE = dose-dependent effect
[20] = Induction of mitochondria mediated intrinsic apoptosis in human MGC-803 cells assessed as late apoptotic cells at 10 nM measured after 48 hrs by flow cytometry analysis (Rvb= 98.2%); assay type: functional
MGC-803 [21] = experiment: Downregulation of cyclin B1 expression in human MGC-803 cells at 5 to 15 nM incubated for 48 hrs; assay type: functional, cell-based; settings: dose 5-15 nM
TE-1 = experiment: Antiproliferative activity against human TE-1 cells assessed as reduction in cell viability incubated for 48 hrs by MTT assay; assay type: functional, cell-based; settings: TE-1, 48 h
MGC-803 [22] = experiment: Inhibition of ERK signalling pathway in human MGC-803 cells assessed as reduction in downstream substrate MSK1 phosphorylation at 5 to 15 nM incubated for 48 hrs; assay type: cell-based; settings: dose 5-15 nM
MGC-803 [23] = experiment: Antiproliferative activity against human MGC-803 cells assessed as reduction in cell viability at 15 to 30 nM by MTT assay; assay type: functional, cell-based; settings: dose 15-30 nM, time 12-48 hrs, TDE = time-dependent effect
[24] = biological target: c-Jun N-terminal kinase, JNK (Homo sapiens) (UniProt P45983+P53779+P45984); experiment: Inhibition of JNK signalling pathway in human MGC-803 cells assessed as reduction in JNK phosphorylation at 5 to 15 nM incubated for 48 hrs; assay type: cell-based; settings: dose 5-15 nM
HGC-27 [25] = experiment: Downregulation of Wee1 expression in human HGC-27 cells at 10 to 30 nM incubated for 48 hrs; assay type: functional, cell-based; settings: dose 10-30 nM
HGC-27 [26] = experiment: Induction of apoptosis in human HGC-27 cells assessed as increase in cleavage caspase 3 level; assay type: functional, cell-based; settings: dose 10-30 nM, DDE = dose-dependent effect
MGC-803 [27] = experiment: Induction of apoptosis in human MGC-803 cells assessed as decrease in cell density at 5 to 15 nM incubated for 48 hrs by bright field imaging analysis; assay type: functional, cell-based; settings: dose 5-15 nM
HGC-27 [28] = experiment: Induction of apoptosis in human HGC-27 cells assessed as increase in total apoptotic cells at 30 nM incubated for 48 hrs by annexin V FITC and propidium iodide staining based flow cytometry analysis (reference value: 7.2%); assay type: functional
[29] = Induction of mitochondria mediated intrinsic apoptosis in human MGC-803 cells assessed as late apoptotic cells at 15 nM measured after 48 hrs by flow cytometry analysis (Rvb= 98.2%); assay type: functional
MGC-803 [30] = experiment: Downregulation of cdc2 phosphorylation at Thr14 residue in human MGC-803 cells at 5 to 15 nM incubated for 48 hrs; assay type: functional, cell-based; settings: dose 5-15 nM
[31] = Toxicity in BALB/c nude mouse xenografted with human MGC-803 cells assessed as pathological changes in liver at 15 to 30 mg/kg, ip administered once daily for 21 days by Hematoxyin-eosin staining based analysis; assay type: organism-based; settings: in vivo, 504 h, dose 15-30 mg/kg, time 21 day
HGC-27 [32] = experiment: Induction of apoptosis in human HGC-27 cells assessed as increase in Noxa level; assay type: functional, cell-based; settings: dose 10-30 nM, DDE = dose-dependent effect
MGC-803 [33] = experiment: Induction of apoptosis in human MGC-803 cells assessed as decrease in cIAP-1 level; assay type: functional, cell-based; settings: dose 5-15 nM, DDE = dose-dependent effect
MGC-803 [34] = experiment: Induction of apoptosis in human MGC-803 cells assessed as nuclear concentration at 5 to 15 nM incubated for 48 hrs by DAPI staining based analysis; assay type: functional, cell-based; settings: dose 5-15 nM
[35] = Toxicity in BALB/c nude mouse xenografted with human MGC-803 cells assessed as pathological changes in kidney at 15 to 30 mg/kg, ip administered once daily for 21 days by Hematoxyin-eosin staining based analysis; assay type: organism-based; settings: in vivo, 504 h, dose 15-30 mg/kg, time 21 day
MDA-MB-231 = experiment: Antiproliferative activity against human MDA-MB-231 cells assessed as reduction in cell viability incubated for 48 hrs by MTT assay; assay type: functional, cell-based; settings: MDA-MB-231, 48 h
Mus musculus [36] = experiment: Downregulation of p38 phosphorylation in tumor tissue of BALB/c nude mouse xenografted with human MGC-803 cells at 15 to 30 mg/kg, ip administered once daily for 21 days by Western blotting analysis; assay type: functional, organism-based; settings: dose 15-30 mg/kg, time 21.0 day

CN(c1ccc2c(ccn2C)c1)c1cc(=O)oc2ccccc12
Activity (MGC-803 [1]): Dde
Activity (MGC-803 [2]): Dde
Activity (MGC-803 [3]): Dde
Activity (MGC-803 [4]): Dde
Activity (MGC-803 [5]): Active
Activity (MGC-803 [6]): Dde
Activity (Mus musculus [7]): Active
IC50 (HGC-27 [8]): 23.8 nM
IC50 (SGC-7901): 52.3 nM
Activity (HGC-27 [9]): Active
inhibition (MGC-803 [10]): Active
inhibition (HGC-27 [11]): Active
Activity (HGC-27 [12]): Dde
Activity (HGC-27 [13]): Active
inhibition (HGC-27 [14]): Active
IC50 (SK-N-SH): 59.6 nM
Activity (HGC-27 [15]): Active
Activity (MGC-803 [16]): Active
Activity (HGC-27 [17]): Dde
inhibition (HGC-27 [18]): Active
Activity (MGC-803 [19]): Dde
Activity [20]: 92.5%
Activity (MGC-803 [21]): Active
IC50 (TE-1): 489 nM
inhibition (MGC-803 [22]): Active
Activity (MGC-803 [23]): Tde
inhibition [24]: Active
Activity (HGC-27 [25]): Active
Activity (HGC-27 [26]): Dde
Activity (MGC-803 [27]): Active
Activity (HGC-27 [28]): 47.3%
Activity [29]: 75.2%
Activity (MGC-803 [30]): Active
Activity [31]: Non-Toxic
Activity (HGC-27 [32]): Dde
Activity (MGC-803 [33]): Dde
Activity (MGC-803 [34]): Active
Activity [35]: Non-Toxic
IC50 (MDA-MB-231): 79.3 nM
Activity (Mus musculus [36]): Active
